Laboratory results published in PubChem BioAssay (NCI).
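A five-concentration, 48-hour dose response in 96-well plates underlies each endpoint, interpolated linearly between surrounding concentrations. The concentration for 50% growth inhibition is given as GI50. Definition used: TGI = concentration required for complete inhibition of growth.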

Key:
Experiment in all cases: NCI anticancer screen, dose series, 48 h
786-0 renal = system: 786-0 renal
A498 renal = system: A498 renal
A549 NSCLC = system: A549 NSCLC
ACHN renal = system: ACHN renal
BT-549 breast = system: BT-549 breast
CAKI-1 renal = system: CAKI-1 renal
CCRF-CEM leukemia = system: CCRF-CEM leukemia
COLO 205 colon = system: COLO 205 colon
DU-145 prostate = system: DU-145 prostate
EKVX NSCLC = system: EKVX NSCLC
HCC-2998 colon = system: HCC-2998 colon
HCT-116 colon = system: HCT-116 colon
HCT-15 colon = system: HCT-15 colon
HL-60(TB) leukemia = system: HL-60(TB) leukemia
HOP-62 NSCLC = system: HOP-62 NSCLC
HOP-92 NSCLC = system: HOP-92 NSCLC
HS 578T breast = system: HS 578T breast
HT29 colon = system: HT29 colon
IGROV1 ovarian = system: IGROV1 ovarian
K-562 leukemia = system: K-562 leukemia
KM12 colon = system: KM12 colon
LOX IMVI melanoma = system: LOX IMVI melanoma
M14 melanoma = system: M14 melanoma
MALME-3M melanoma = system: MALME-3M melanoma
MCF7 breast = system: MCF7 breast
MDA-MB-231 breast = system: MDA-MB-231 breast
MDA-MB-435 = system: MDA-MB-435
MOLT-4 leukemia = system: MOLT-4 leukemia
NCI-H226 lung = system: NCI-H226 lung
NCI-H460 lung = system: NCI-H460 lung
NCI-H522 lung = system: NCI-H522 lung
NCI/ADR-RES ovarian = system: NCI/ADR-RES ovarian
OVCAR-3 ovarian = system: OVCAR-3 ovarian
OVCAR-4 ovarian = system: OVCAR-4 ovarian
OVCAR-5 ovarian = system: OVCAR-5 ovarian
OVCAR-8 ovarian = system: OVCAR-8 ovarian
PC-3 prostate = system: PC-3 prostate
RPMI-8226 leukemia = system: RPMI-8226 leukemia
RXF 393 renal = system: RXF 393 renal
SF-268 CNS = system: SF-268 CNS
SF-295 CNS = system: SF-295 CNS
SF-539 CNS = system: SF-539 CNS
SK-MEL-2 melanoma = system: SK-MEL-2 melanoma
SK-MEL-28 melanoma = system: SK-MEL-28 melanoma
SK-MEL-5 melanoma = system: SK-MEL-5 melanoma
SK-OV-3 ovarian = system: SK-OV-3 ovarian
SN12C renal = system: SN12C renal
SNB-19 CNS = system: SNB-19 CNS
SNB-75 CNS = system: SNB-75 CNS
SR leukemia = system: SR leukemia
SW-620 colon = system: SW-620 colon
T-47D breast = system: T-47D breast
TK-10 renal = system: TK-10 renal
U251 CNS = system: U251 CNS
UACC-257 melanoma = system: UACC-257 melanoma
UO-31 renal = system: UO-31 renal

O=C1C2=C(C(=O)c3c(O)cccc31)C(c1ccco1)c1sc(=O)[nH]c1S2 (stereo unspecified)
GI50 (786-0 renal): 7.09 µM
TGI (786-0 renal): 24.2 µM
GI50 (A498 renal): 3.48 µM
TGI (A498 renal): 9.69 µM
GI50 (A549 NSCLC): 1.78 µM
TGI (A549 NSCLC): 3.63 µM
GI50 (ACHN renal): 4.08 µM
TGI (ACHN renal): 16.1 µM
GI50 (BT-549 breast): 1.64 µM
TGI (BT-549 breast): 3.2 µM
GI50 (CAKI-1 renal): 3.29 µM
TGI (CAKI-1 renal): 13.9 µM
GI50 (CCRF-CEM leukemia): 3.29 µM
TGI (CCRF-CEM leukemia): > 100 µM
GI50 (COLO 205 colon): 1.89 µM
TGI (COLO 205 colon): 3.61 µM
GI50 (DU-145 prostate): 1.55 µM
TGI (DU-145 prostate): 3.01 µM
GI50 (EKVX NSCLC): 6.75 µM
TGI (EKVX NSCLC): 19.4 µM
GI50 (HCC-2998 colon): 2.5 µM
TGI (HCC-2998 colon): 5.51 µM
GI50 (HCT-116 colon): 2.36 µM
GI50 (HCT-15 colon): 1.75 µM
TGI (HCT-15 colon): 3.88 µM
GI50 (HL-60(TB) leukemia): 1.82 µM
TGI (HL-60(TB) leukemia): 6.09 µM
GI50 (HOP-62 NSCLC): 2.04 µM
TGI (HOP-62 NSCLC): 3.74 µM
GI50 (HOP-92 NSCLC): 3.15 µM
TGI (HOP-92 NSCLC): 8.08 µM
GI50 (HS 578T breast): 2.2 µM
TGI (HS 578T breast): 6.56 µM
GI50 (HT29 colon): 3.31 µM
TGI (HT29 colon): 9.25 µM
GI50 (IGROV1 ovarian): 2.51 µM
TGI (IGROV1 ovarian): 6.14 µM
GI50 (K-562 leukemia): 2.84 µM
TGI (K-562 leukemia): > 100 µM
GI50 (KM12 colon): 3.71 µM
TGI (KM12 colon): 31.3 µM
GI50 (LOX IMVI melanoma): 2.21 µM
TGI (LOX IMVI melanoma): 7.55 µM
GI50 (M14 melanoma): 1.06 µM
TGI (M14 melanoma): 2.37 µM
GI50 (MALME-3M melanoma): 0.755 µM
TGI (MALME-3M melanoma): 2 µM
GI50 (MCF7 breast): 1.39 µM
TGI (MCF7 breast): 3.34 µM
GI50 (MDA-MB-231 breast): 2.73 µM
TGI (MDA-MB-231 breast): 9.08 µM
GI50 (MDA-MB-435): 1.16 µM
TGI (MDA-MB-435): 2.47 µM
GI50 (MOLT-4 leukemia): 2.71 µM
TGI (MOLT-4 leukemia): 9.88 µM
GI50 (NCI-H226 lung): 2.18 µM
TGI (NCI-H226 lung): 5.46 µM
GI50 (NCI-H460 lung): 1.54 µM
TGI (NCI-H460 lung): 3.48 µM
GI50 (NCI-H522 lung): 2.31 µM
TGI (NCI-H522 lung): 6.99 µM
GI50 (NCI/ADR-RES ovarian): 3.02 µM
TGI (NCI/ADR-RES ovarian): 12.3 µM
GI50 (OVCAR-3 ovarian): 2.86 µM
TGI (OVCAR-3 ovarian): 14 µM
GI50 (OVCAR-4 ovarian): 1.79 µM
TGI (OVCAR-4 ovarian): 3.95 µM
GI50 (OVCAR-5 ovarian): 2.13 µM
TGI (OVCAR-5 ovarian): 4.58 µM
GI50 (OVCAR-8 ovarian): 2.46 µM
TGI (OVCAR-8 ovarian): 8.97 µM
GI50 (PC-3 prostate): 2.75 µM
TGI (PC-3 prostate): 21.6 µM
GI50 (RPMI-8226 leukemia): 2.62 µM
TGI (RPMI-8226 leukemia): 9.83 µM
GI50 (RXF 393 renal): 2.02 µM
TGI (RXF 393 renal): 5.57 µM
GI50 (SF-268 CNS): 3.48 µM
TGI (SF-268 CNS): 19.2 µM
GI50 (SF-295 CNS): 1.98 µM
TGI (SF-295 CNS): 3.59 µM
GI50 (SF-539 CNS): 1.93 µM
TGI (SF-539 CNS): 3.69 µM
GI50 (SK-MEL-2 melanoma): 3.51 µM
TGI (SK-MEL-2 melanoma): 16.4 µM
GI50 (SK-MEL-28 melanoma): 1.87 µM
TGI (SK-MEL-28 melanoma): 3.72 µM
GI50 (SK-MEL-5 melanoma): 1.59 µM
TGI (SK-MEL-5 melanoma): 3 µM
GI50 (SK-OV-3 ovarian): 15.5 µM
TGI (SK-OV-3 ovarian): 29.6 µM
GI50 (SN12C renal): 1.74 µM
TGI (SN12C renal): 3.49 µM
GI50 (SNB-19 CNS): 2.6 µM
TGI (SNB-19 CNS): 7.33 µM
GI50 (SNB-75 CNS): 3.17 µM
TGI (SNB-75 CNS): 7.61 µM
GI50 (SR leukemia): 3.05 µM
TGI (SR leukemia): 69.5 µM
GI50 (SW-620 colon): 3.28 µM
TGI (SW-620 colon): 10.5 µM
GI50 (T-47D breast): 2.87 µM
TGI (T-47D breast): 13 µM
GI50 (TK-10 renal): 12.3 µM
TGI (TK-10 renal): 26.4 µM
GI50 (U251 CNS): 3.07 µM
TGI (U251 CNS): 10.1 µM
GI50 (UACC-257 melanoma): 1.57 µM
TGI (UACC-257 melanoma): 3.26 µM
GI50 (UO-31 renal): 2.56 µM
TGI (UO-31 renal): 13.5 µM
